Experimental data: publication PMC6131205, “Controlling the regioselectivity and stereospecificity of FAD-dependent polyamine oxidases with the use of amine-attached guide molecules as conformational modulators” (Bioscience Reports, 2018)
Where two headings read alike, the source gives them in different places. Values belong to the compound of their own block, whether it stands above or below them.

How the values were obtained:
[1] = target: T1, Fms1 (Saccharomyces cerevisiae, UniProt P50264); test: Fms1 cleavage of 1 mM Spd supplemented with aldehydes (E1/E2 regioselectivity); type: biochemical, yeast; set-up: made in house; settings: for E1 cleavage (Put) kcat / E2 cleavage (DAP) kcat / Ratio of E1/E2: fixed 1 mM Spd, aldehyde 25-1000 μM, pH 9.0, 25°C;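 as to all read-outs here: recombinant yeast Fms1 reactions in Glycine-NaOH buffer, with products Put and DAP quantified by HPLC using post-column o-phthalaldehyde derivatization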
T1 sequence (P50264 whole entry): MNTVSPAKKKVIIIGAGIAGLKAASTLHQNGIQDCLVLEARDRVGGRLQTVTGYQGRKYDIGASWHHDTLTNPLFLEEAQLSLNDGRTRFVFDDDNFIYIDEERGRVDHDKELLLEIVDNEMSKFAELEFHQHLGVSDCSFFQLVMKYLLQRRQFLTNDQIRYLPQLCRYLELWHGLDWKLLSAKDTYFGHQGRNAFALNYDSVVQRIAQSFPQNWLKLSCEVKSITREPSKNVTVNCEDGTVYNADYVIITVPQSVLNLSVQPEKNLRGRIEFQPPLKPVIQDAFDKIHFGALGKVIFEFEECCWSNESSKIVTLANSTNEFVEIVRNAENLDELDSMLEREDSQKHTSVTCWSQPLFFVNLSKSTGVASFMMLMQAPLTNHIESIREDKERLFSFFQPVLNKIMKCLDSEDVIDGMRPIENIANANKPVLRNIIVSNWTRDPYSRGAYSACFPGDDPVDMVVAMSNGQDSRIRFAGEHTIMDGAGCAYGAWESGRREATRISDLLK
Protocol: (§1) HPLC with post-column o-phthalaldehyde-derivatization was used to determine the concentrations of the reaction products Put and 1,3-diaminopropane (DAP) or butane-1,3-diamine respectively as described in [30]. Fms1 activity was determined essentially as described for human recombinant APAO, but reactions were carried out in 100 mM Glycine-NaOH buffer at pH 9.0 in a water bath at +25°C [29, 30].

[2] = target: T2, human recombinant APAO (Homo sapiens, UniProt Q6QHF9); test: Substrate kinetics with human recombinant APAO (HPLC of reaction products); type: biochemical; settings: for Km / Vmax / kcat: 100 mM Glycine-NaOH pH 9.5, 5 mM DTT
T2 construct: made in house
T2 sequence (Q6QHF9 whole entry): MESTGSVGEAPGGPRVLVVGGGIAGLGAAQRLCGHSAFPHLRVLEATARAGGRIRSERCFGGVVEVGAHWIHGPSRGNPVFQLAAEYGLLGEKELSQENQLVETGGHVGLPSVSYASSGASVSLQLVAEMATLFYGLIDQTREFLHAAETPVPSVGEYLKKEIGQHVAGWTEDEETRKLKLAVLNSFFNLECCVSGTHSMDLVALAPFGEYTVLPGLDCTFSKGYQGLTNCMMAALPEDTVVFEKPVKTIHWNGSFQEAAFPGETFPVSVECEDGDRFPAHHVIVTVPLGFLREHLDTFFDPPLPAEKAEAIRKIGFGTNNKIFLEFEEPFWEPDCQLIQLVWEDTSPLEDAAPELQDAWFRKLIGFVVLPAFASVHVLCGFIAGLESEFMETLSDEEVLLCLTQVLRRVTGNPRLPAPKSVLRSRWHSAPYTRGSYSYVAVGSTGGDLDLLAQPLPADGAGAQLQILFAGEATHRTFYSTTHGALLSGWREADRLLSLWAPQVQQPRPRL

[3] = target: T3, SMOX (Homo sapiens, UniProt Q9NWM0); test: Inhibition of SMOX (Ki, peroxidase-coupled fluorescence, Spm as substrate)
T3 sequence (Q9NWM0 whole entry): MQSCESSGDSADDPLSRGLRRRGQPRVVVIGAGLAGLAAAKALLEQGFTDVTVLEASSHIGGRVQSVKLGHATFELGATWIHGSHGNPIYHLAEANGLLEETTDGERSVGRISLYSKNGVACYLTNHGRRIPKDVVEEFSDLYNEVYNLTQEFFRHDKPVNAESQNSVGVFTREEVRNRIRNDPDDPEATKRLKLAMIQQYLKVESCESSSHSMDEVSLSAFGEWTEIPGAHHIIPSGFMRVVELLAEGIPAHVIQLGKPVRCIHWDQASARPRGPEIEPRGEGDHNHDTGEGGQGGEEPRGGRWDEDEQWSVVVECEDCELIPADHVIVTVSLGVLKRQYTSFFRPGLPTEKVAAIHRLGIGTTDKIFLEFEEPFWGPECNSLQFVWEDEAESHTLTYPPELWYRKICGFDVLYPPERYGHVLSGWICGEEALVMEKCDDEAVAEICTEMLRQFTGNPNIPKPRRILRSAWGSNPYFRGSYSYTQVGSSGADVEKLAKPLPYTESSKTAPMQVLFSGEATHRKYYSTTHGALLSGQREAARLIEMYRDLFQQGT
Protocol: Reaction mixtures contained 40 units/ml horseradish peroxidase (Roche), 1 mM homovanillic acid in 100 mM Glycine-NaOH at pH 9.0 supplemented with 40 ng of SMOX. […] Dilutions of fresh H2O2 were used as standard.

[4] = target: T3, SMOX; test: Substrate properties with human recombinant SMOX; type: biochemical; set-up: made in house
From the text: Thus, developing specific inhibitors of SMOX is of crucial importance. In addition, the use of specific substrates for SMOX and APAO would enable distinguishing between APAO and SMOX enzyme activities in vivo.

[5] = target: T2, human recombinant APAO; settings: cited from earlier work
[6] = target: T1, Fms1; test: Substrate kinetics with recombinant Fms1 (HPLC of reaction products);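 also: recombinant polyamine oxidases incubated with substrate, product amines (putrescine, 1,3-diaminopropane or butane-1,3-diamine) quantified by HPLC after post-column o-phthalaldehyde derivatization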
Protocol: as §1
The reactions were carried out in 1 triplicate at pH 9.0 in 100 mM Glycine-NaOH at +25°C.
values for N -Ac-MeSpd enantiomers were determined by using substrate concentrations of 25, 50,
for Rac-MeSpd 30 min, (R)-MeSpd 20 min and (S)-MeSpd 40 minutes.
The reactions were carried out in triplicate at pH 9.0 in 100 mM Glycine-NaOH at +25°C.
values for MeSpd enantiomers were determined by using substrate concentrations of 100, 300, 600,
1000, 2000 and 4000 M. Recombinant Fms1 was 3.8 g/reaction and the incubation time 60
incubated for 30 min (half of the reaction time of an ordinary sample). E1 cleavage was monitored

[7] = target: T1, Fms1; set-up: made in house; method as in PMID 21067138; settings: cited from earlier work
[8] = target: T1, Fms1; test: Fms1 cleavage of (R)- or (S)-MeSpd with or without aromatic aldehyde (E1/E2 velocities); type: biochemical, yeast; set-up: made in house
Protocol: Supplementary Table 3 The effects of increasing aromatic aldehyde concentration for the regioselectivity of Fms1 using (R)-MeSpd or (S)-MeSpd as a substrate.
The reactions were carried out in triplicate at pH 9.0 in 100 mM Glycine-NaOH at +25°C with the fixed 1 or 4 mM MeSpd supplemented with increasing concentration 50 or 500 µM of tested aldehyde. Recombinant Fms1 was 1.6 µg/reaction and the incubation time from 15 to 30 minutes.
Linearity of reaction was monitored by using T1/2 controls, i.e. samples that have been incubated for 7.5 to 15 min (half of the reaction time of an ordinary sample). E1 cleavage was monitored by HPLC by measuring Put formation and E2 cleavage by determining butane-1,3-diamine content.
Substrate (R)-MeSpd (S)-MeSpd […]

[9] = target: T1, Fms1; test: as above; type: biochemical, yeast; set-up: made in house; remark: listed apart in the source
[10] = Ki (best-fit value, noncompetitive inhibition), GraphPad Prism global fit, supplement
[11] = Ki, non-competitive fit, 25, 50 or 100 µM Spm, pH 9.0, 37°C
[12] = Supplementary Table 1, pH 9.0, 100 mM Glycine-NaOH, 25°C, Put formation
[13] = 1 mM Spm, Glycine-NaOH buffer pH 9.0
[14] = aldehyde A13 50 µM, first of two lines (1 or 4 mM MeSpd, not stated which)
[15] = aldehyde A12 50 µM, first of two lines (1 or 4 mM MeSpd, not stated which)
[16] = aldehyde A12 50 µM, second of two lines (1 or 4 mM MeSpd, not stated which)
[17] = aldehyde A12 500 µM, first of two lines (1 or 4 mM MeSpd, not stated which)
[18] = aldehyde A12 500 µM, second of two lines (1 or 4 mM MeSpd, not stated which)
[19] = aldehyde A13 50 µM, second of two lines (1 or 4 mM MeSpd, not stated which)
[20] = aldehyde A13 500 µM, first of two lines (1 or 4 mM MeSpd, not stated which)
[21] = aldehyde A13 500 µM, second of two lines (1 or 4 mM MeSpd, not stated which)

E1 cleavage (Put) kcat [1]: 1.06 ± 0.04 s⁻¹
E2 cleavage (DAP) kcat [1]: 0.03 ± 0.00 s⁻¹
SMILES: O=Cc1ccccc1[N+](=O)[O-] [C00011]

Km [2]: 1.2 ± 0.7 µM
Vmax [2]: 5.02 ± 0.74 µmol/min/mg
kcat [2]: 4.6 ± 0.7 s⁻¹
Ki [3, 10]: 589 µM
Ki [3, 11]: 589 ± 58 µM
SMILES: C[C@H](CCNCCCCN)NC(=O)c1ccccc1 [Bz-(R)-MeSpd]

E1 cleavage (Put) kcat [1]: 1.41 ± 0.04 s⁻¹
E2 cleavage (DAP) kcat [1]: 0.43 ± 0.01 s⁻¹
Ratio of E1/E2 [1]: 5.4
SMILES: O=CC1CCCCC1 [C00010]

E1 cleavage (Put) kcat [1]: 0.49 ± 0.01 s⁻¹
E2 cleavage (DAP) kcat [1]: 0.49 ± 0.01 s⁻¹
Ratio of E1/E2 [1]: 2.2
SMILES: O=Cc1ccccn1 [C00007]

Km [2]: 2 ± 0.1 µM
Vmax [2]: 0.15 ± 0.00 µmol/min/mg
kcat [2]: 0.14 ± 0.00 s⁻¹
specificity constant ratio (R)-enantiomer/(S)-enantiomer ([2]; APAO, ratio of kcat/Km): four
substrate of SMOX [4]: not being substrates of SMOX
Ki [3, 10]: 441 µM
Ki [3, 11]: 441 ± 32 µM
SMILES: C[C@H](CCNCCCCN)NCc1ccccc1 [Bn-(R)-MeSpd]

E1 cleavage (Put) kcat [1]: 0.37 ± 0.00 s⁻¹
E2 cleavage (DAP) kcat [1]: 0.05 ± 0.00 s⁻¹
Ratio of E1/E2 [1]: 6.4
SMILES: O=Cc1ccc([N+](=O)[O-])cc1 [C00012]

increase of the ratio of the cleavage pathways (E1/E2) ([1]; Spd plus aldehyde vs Spd alone): 5 fold
SMILES: O=Cc1ccccc1[N+](=O)[O-] [A7]

SMILES: CC(=O)N[C@@H](C)CCNCCCCN [N^1-Ac-(S)-MeSpd]
Km [5]: 170 µM
kcat [5]: 1.2 s⁻¹
Vmax [6, 12]: 22 ± 1 nmol/min/mg
kcat [6, 12]: 0.02 ± 0.00 s⁻¹

reaction velocity ([6]; 1 mM Spm, 100 mM Tris/HCl or 170 mM Bis/Tris buffers pH 9.0): 36.1 ± 0.24 µmol/mg/min
pH of highest reaction velocity ([6]; 1 mM Spm, 170 mM Bis/Tris): 9.25
reaction velocity in comparison with rate at the optimum pH ([6]; 1 mM Spm, 170 mM Bis/Tris, pH 8.0): ~ 15%
reaction velocity in comparison with rate at the optimum pH ([6]; 1 mM Spm, 170 mM Bis/Tris, pH 8.5): 60%
activity of recombinant Fms1 [6, 13]: 30.9 ± 0.45 µmol/mg/min
kcat [6, 13]: 30.3 ± 0.44 s⁻¹
SMILES: NCCCNCCCCNCCCN [Spm, spermine, reference compound]
kcat [7]: 39.0 ± 1.5 s⁻¹

Km [2]: 1.6 ± 0.6 µM
Vmax [2]: 0.03 ± 0.00 µmol/min/mg
kcat [2]: 0.03 ± 0.00 s⁻¹
substrate of SMOX [4]: not being substrates of SMOX
Ki [3, 10]: 155 µM
Ki [3, 11]: 155 ± 13 µM
SMILES: C[C@@H](CCNCCCCN)NCc1ccccc1 [Bn-(S)-MeSpd]

kcat [6, 12]: 65 ± 2 s⁻¹
SMILES: CC(=O)NCCCNCCCCN [N^1-AcSpd, reference compound]

E2 cleavage velocity ([8]; Without aldehyde, 1 mM MeSpd): 7.9 ± 1.1 nmol/mg/min
E1 cleavage velocity ([8]; Without aldehyde, 4 mM MeSpd): 9.6 ± 0.1 nmol/mg/min
E2 cleavage velocity ([8]; Without aldehyde, 4 mM MeSpd): 11.1 ± 1.8 nmol/mg/min
E1 cleavage velocity [8, 14]: 45.6 ± 2.6 nmol/mg/min
E1 cleavage velocity ([9]; Without aldehyde, 1 mM MeSpd): 7.2 ± 0.2 nmol/mg/min
E1 cleavage velocity [9, 15]: 29 ± 1.0 nmol/mg/min
E2 cleavage velocity [9, 15]: 20.2 ± 1.0 nmol/mg/min
E1 cleavage velocity [9, 16]: 31 ± 1.8 nmol/mg/min
E2 cleavage velocity [9, 16]: 23.3 ± 2.0 nmol/mg/min
E1 cleavage velocity [9, 17]: 57 ± 1.1 nmol/mg/min
E2 cleavage velocity [9, 17]: 36 ± 4.2 nmol/mg/min
E1 cleavage velocity [9, 18]: 62 ± 3 nmol/mg/min
E2 cleavage velocity [9, 18]: 41 ± 2.5 nmol/mg/min
E2 cleavage velocity [9, 14]: 8.6 ± 1.8 nmol/mg/min
E1 cleavage velocity [9, 19]: 44.0 ± 1.2 nmol/mg/min
E2 cleavage velocity [9, 19]: 10.0 ± 0.6 nmol/mg/min
E1 cleavage velocity [9, 20]: 66.1 ± 0.0 nmol/mg/min
E2 cleavage velocity [9, 20]: 6.9 ± 0.7 nmol/mg/min
E1 cleavage velocity [9, 21]: 73.5 ± 0.4 nmol/mg/min
E2 cleavage velocity [9, 21]: 7.4 ± 1.3 nmol/mg/min
Km ([6]; Fms1, text summary of Supplementary Table S2): > 500 µM
SMILES: C[C@H](N)CCNCCCCN [(S)-MeSpd, 1,8-diamino-5-azanonane]

Km [2]: 0.2 ± 0.2 µM
Vmax [2]: 0.03 ± 0.00 µmol/min/mg
kcat [2]: 0.03 ± 0.00 s⁻¹
Ki [3, 10]: 846 µM
Ki [3, 11]: 846 ± 82 µM
SMILES: C[C@@H](CCNCCCCN)NC(=O)c1ccccc1 [Bz-(S)-MeSpd]

E1 cleavage (Put) kcat [1]: 5.5 ± 0.1 s⁻¹
E2 cleavage (DAP) kcat [1]: 0.48 ± 0.01 s⁻¹
Ratio of E1/E2 [1]: 8.0
SMILES: O=Cc1cccnc1 [C00006]

E1 cleavage (Put) kcat [1]: 0.54 ± 0.01 s⁻¹
E2 cleavage (DAP) kcat [1]: 0.08 ± 0.00 s⁻¹
Ratio of E1/E2 [1]: 5.2
SMILES: O=Cc1ccccc1O [C00002]
